# Measured values reported in patent publication US20240002393A1, “SUBSTITUTED BENZO[f][l ,2,4JTRIAZOL0[4,3-a][l ,4J[…] GABA A GAMMA! POSITIVE ALLOSTERIC MODULATORS” (Hoffmann-La Roche Inc., priority 2020, published 2024).
# Experiments:
# [1] = biological target: human GABAA α1β3γ2 receptor (Homo sapiens (Human), UniProt P14867+P18507); assay: Radioligand binding assay, [3H]Flumazenil competition, γ2-containing GABAA subtypes; conditions: HEK293F membranes, [3H]Flumazenil 1 nM, mean of two determinations; read-out: Ki h-GABAA α1β3γ2
# Outline: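 Competition with [3H]Flumazenil (81.1 Ci/mmol) for binding to HEK293F cells transiently expressing human α1β3γ2 receptors, prepared in Mannitol Buffer pH 7.2-7.4. Incubated 1 hour at 4° C to equilibrium, filtered, washed with ice-cold 50 mM Tris pH 7.5, counted by liquid scintillation. Ki values are means of two determinations.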
# [2] = biological target: human GABAA α5β2γ1 receptor (Homo sapiens (Human), UniProt P31644+Q8N1C3); assay: Radioligand binding assay, [3H]RO7239181 competition, γ1-containing GABAA subtypes; conditions: HEK293F membranes, mean of two determinations
# [3] = biological target: human GABAA α1β2γ1 receptor (Homo sapiens (Human), UniProt P14867+Q8N1C3); assay: as above; conditions: HEK293F membranes, [3H]RO7239181 20-30 nM, mean of two determinations
# [4] = biological target: human GABAA α2β2γ1 receptor (Homo sapiens (Human), UniProt P47869+Q8N1C3); assay: as above; conditions: for Ki: HEK293F membranes, [3H]RO7239181 20-30 nM, mean of two determinations, read-out: Ki h-GABAA α2β2γ1; for γ2/γ1 Selectivity Ratio: Ki α1β3γ2 (nM)/Ki α2β2γ1 (nM); for LogSel: Log[Ki α1β3γ2 (nM)/Ki α2β2γ1 (nM)]
Structure (SMILES),Ki [1] [nM],Ki [2] [nM],Ki [3] [nM],Ki [4] [nM],γ2/γ1 Selectivity Ratio [4],LogSel [4]
"Cc1nnc2n1-c1ccc(I)c(Cl)c1C(c1c(F)cccc1F)=N[C@H]2C [Example 102, (4S)-7-chloro-6-(2,6-difluorophenyl)-8-iodo-1,4-dimethyl-4H-[1,2,4]triazolo[4,3-a][1,4]benzodiazepine]",278,0.8,6.6,8,34.7,1.54
"C[C@@H]1N=C(c2c(F)cccc2F)c2c(ccc(C(F)(F)F)c2Cl)-n2c(CO)nnc21 [Example 103, [(4S)-7-chloro-6-(2,6-difluorophenyl)-4-methyl-8-(trifluoromethyl)-4H-[1,2,4]triazolo[4,3-a][1,4]benzodiazepin-1-yl]methanol]",3380,5.4,49.8,50.4,67.0,1.83
